Data on one molecule can be found in patent US7759350B2, “Pyrimidine carboxamides” (Orchid Research Laboratories Ltd., priority 2005, dated 2010).

Assay [1] concerns the target T1, purified recombinant COX-2 enzyme (Homo sapiens, UniProt P35354).
T1 sequence (P35354 18-604): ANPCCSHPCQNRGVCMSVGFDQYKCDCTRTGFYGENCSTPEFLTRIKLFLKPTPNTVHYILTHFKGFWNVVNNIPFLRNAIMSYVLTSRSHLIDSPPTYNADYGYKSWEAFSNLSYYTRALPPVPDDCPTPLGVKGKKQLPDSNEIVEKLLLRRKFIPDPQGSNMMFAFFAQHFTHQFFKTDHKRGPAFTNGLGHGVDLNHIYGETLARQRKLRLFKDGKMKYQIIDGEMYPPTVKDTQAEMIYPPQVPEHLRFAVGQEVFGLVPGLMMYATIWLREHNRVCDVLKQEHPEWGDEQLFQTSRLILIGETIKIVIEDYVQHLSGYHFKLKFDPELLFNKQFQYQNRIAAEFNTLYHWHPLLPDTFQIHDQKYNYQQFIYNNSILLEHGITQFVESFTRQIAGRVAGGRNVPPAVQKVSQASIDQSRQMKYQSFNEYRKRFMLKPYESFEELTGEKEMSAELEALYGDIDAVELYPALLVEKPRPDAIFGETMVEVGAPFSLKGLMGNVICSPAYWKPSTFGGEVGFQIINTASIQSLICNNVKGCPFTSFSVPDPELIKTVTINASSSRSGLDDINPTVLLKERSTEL
Briefly: COX-2 enzyme based assay. It counts as biochemical. The settings on record: Conc. 10 μM. As to the method: COX-1 and COX-2 Enzyme Based Assay
COX-2 enzyme based assays were carried out to check the inhibitory potential of test compounds on the production of prostaglandin by purified recombinant COX-1/COX-2 enzyme (Proc. Nat. Acad. Sci. USA, 88, 2692-2696, 1991; Clin. Immunoassay 15, 116-120, 1992) In this assay, the potential of the test compound to inhibit the production of prostaglandin either by COX-1 or COX-2 from arachidonic acid (substrate) was measured. This was an enzyme based in-vitro assay to evaluate selective COX inhibition with good reproducibility.
Arachidonic acid was converted to PGH2 (Intermediate product) by COX1/COX-2 in presence or absence of the test compound. The reaction was carried out at 37° C. and after 2 minutes it was stopped by adding 1M HCl. Intermediate products PGH2 was converted to a stable Prostanoid product PGF2α by SnCl2 reduction. The amount of PGF2α produced in the reaction was inversely proportional to the COX inhibitory potential of the test compound. The prostanoid product was quantified via enzyme immunoassay (EIA) using a broadly specific antibody that binds to all the major forms of Prostaglandin, using Cayman ELISA kit as per the procedure outlined by the manufacturer Cayman Chemicals, Ann Arbor, USA).

Assay [2] relates to IL-6. Briefly: In vitro measurement of IL-6 in human PBMC. The class given is cell-based. To be noted: Conc. 0.1 μM, LPS. Summed up:
(§1)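 Human PBMC (0.5 million/well) preincubated with compound 15 min at 37° C., then stimulated with E. coli LPS (1 μg/ml) for 18 h at 37° C. Cytokine in culture medium quantified by ELISA.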

Assay [3] concerns IL-1β. Briefly: In vitro measurement of IL-1β in human PBMC. The class given is cell-based. The settings on record: Conc. 0.1 μM, LPS. Summed up: as §1
The test system of assay [4] is DU145. Kind of assay: Anti-cancer screen (MTT), DU145. It counts as cell-based. The settings on record: Homo sapiens, DU-145, 48 hours.

Regarding `CNc1nc(-c2ccncc2)nc(SC)c1C(=O)Nc1ccc(OC)cc1` [Example 14, N-(4-Methoxyphenyl)-4-(methylamino)-6-(methylthio)-2-pyridin-4-ylpyrimidine-5-carboxamide], in assay [1], the inhibition at 10 µM was found to be 11.4%. In assay [2], this molecule came in with an inhibition at 0.1 µM of 28.2%. The “IL-1β Inhibition (%)” value in assay [3] is “Not active”. The molecule also showed a GI50 in assay [4] of 2.75 µM.

A word on the inhibition: it is the change of the read-out against control, counted positive when it falls. By GI50 is commonly meant the concentration that inhibits growth by half. Read a low GI50 as more potent growth inhibition.
